How the values were obtained:
[1] = tested on: Calu-6 xenografts (human NSCLC tumor cell line); experiment: subcutaneous Calu-6 NSCLC xenografts, single agents and combination; assay type: in vivo; details: Calu-6 xenografts in nude mice, end of experiment (38 days of treatment), suboptimal doses
Description: In order to analyse the anti-tumor effects of combining the inhibition of tumor angiogenesis by interfering with the VEGFR signaling cascade with the established anti-proliferative treatment modality of NSCLC with compound B1, the following in vivo experiment was performed. Nude mice carrying established subcutaneous Calu-6 xenografts (human NSCLC tumor cell line) were randomized and treated with either compound B1 or compound A1 alone or with the combination of both drugs.

[2] = tested on: advanced non-small-cell lung cancer; experiment: Phase II double-blind randomized study of two doses of compound A1; assay type: in vivo, human; details: for median Progression Free Survival (PFS) time: all patients
Description: This study was conducted as a Phase II double-blind, randomized study of two different doses of orally administered compound A1 in patients with advanced non-small-cell lung cancer who had failed at least one prior chemotherapy regimen. The primary efficacy endpoints evaluated were response rate and time to progression. Important secondary endpoints were survival and tolerability of compound A1.
Patients were randomly assigned to receive compound A1 at a dose of 250 mg twice daily or 150 mg twice daily. The dose of compound A1 could be reduced stepwise to no lower than 100 mg twice daily in case of undue toxicity that would prevent chronic treatment. Patients were treated until diagnosis of progression of the underlying lung cancer disease. Progressive disease, for the analysis of the primary endpoint, was defined as radiological evidence of tumour progression according to RECIST criteria.
This randomized study enrolled 73 patients in total, 36 patients at the dose of 250 mg twice daily and 37 patients at the dose of 150 mg twice daily.
The ECOG performance status score is a scale from 0 to 5 with criteria used by doctors and researchers to assess how a patient's disease is progressing, assess how the disease affects the daily living abilities of the patient, and determine appropriate treatment and prognosis (Oken, M. M., Creech, R. H., Tormey, D. C., Horton, J., Davis, T. E., McFadden, E. T., Carbone, P. P.: Toxicity And Response Criteria Of The Eastern Cooperative Oncology Group. Am J Clin Oncol 5:649-655, 1982). […] Overall Survival (OS) time is defined as the length of time a patient lives after they are diagnosed with or treated for a disease.

[3] = tested on: relapsed ovarian cancer; experiment: Phase II maintenance trial of compound A1 versus placebo; assay type: in vivo, human
Description: The primary efficacy endpoint of this trial was the Progression Free Survival Rate (PFSR) at 9 months after start of treatment with compound A1. As secondary endpoints PFS rate at 3 months and 6 months, respectively, and time to next anti-tumour treatment were evaluated.
Patients were randomly assigned to receive compound A1 at a dose of 250 mg twice daily or matching placebo. […] Patients were treated until diagnosis of progression of the underlying ovarian cancer disease. Progressive disease, for the analysis of the primary endpoint, was defined as either radiological progression, or tumour marker (CA-125) progression.
In total, 84 patients were entered into the trial. 44 patients were randomised to receive compound A1 at a dose of 250 mg twice daily, and 40 patients to receive matching placebo.

[4] = tested on: recurrent advanced stage NSCLC
Description: Patients with advanced stage NSCLC, PS 0-1, previously treated with one first line platinum-based chemotherapy regimen were eligible for this trial. […] Tumor assessments were performed at screening and after every second treatment cycle according to RECIST (Response Evaluation Criteria in Solid Tumors).

[5] = tested on: HT-29; experiment: in vivo anti-tumor efficacy, HT-29 xenograft model; details: Colorectal, HT-29, 100 mg/kg/d
[6] = tested on: HT-29 large tumors; experiment: in vivo anti-tumor efficacy, HT-29 large tumors; details: Colorectal
[7] = tested on: GS-9L; experiment: in vivo anti-tumor efficacy, GS-9L syngeneic rat tumor model; details: Glioblastoma, 50 mg/kg/d
[8] = tested on: FaDu; experiment: in vivo anti-tumor efficacy, FaDu xenograft model; details: Head and neck, 100 mg/kg/d
[9] = tested on: NCI-H460; experiment: in vivo anti-tumor efficacy, NCI-H460 xenograft model; details: Lung (non-small-cell), NCI-H460, 25 mg/kg/d
[10] = tested on: Calu-6; experiment: in vivo anti-tumor efficacy, Calu-6 xenograft model; details: Lung (non-small-cell), Calu-6, 50 mg/kg/d
[11] = tested on: SKOV3; experiment: in vivo anti-tumor efficacy, SKOV3 xenograft model; details: Ovarian, SKOV3, 50 mg/kg/d
[12] = tested on: PAC-120; experiment: in vivo anti-tumor efficacy, PAC-120 xenograft model; details: Prostate (hormone-dependent), PAC-120, 100 mg/kg/d
[13] = tested on: Caki-1; experiment: in vivo anti-tumor efficacy, Caki-1 xenograft model; details: Renal, Caki-1, 100 mg/kg/d
[14] = tested on: Rip-Tag; experiment: in vivo anti-tumor efficacy, Rip-Tag murine transgenic pancreas model
[15] = 250 mg twice daily maintenance, preliminary data output

CCS(=O)(=O)O.COC(=O)c1ccc2c(c1)NC(=O)/C2=C(\Nc1ccc(N(C)C(=O)CN2CCN(C)CC2)cc1)c1ccccc1 [compound A1, 3-Z-[1-(4-(N-((4-methyl-piperazin-1-yl)-methylcarbonyl)-N-methyl-amino)-anilino)-1-phenyl-methylene]-6-methoxycarbonyl-2-indolinone-monoethanesulphonate]
T/C value [1]: 33%
Overall Survival (OS) time ([2]; 150 mg twice daily): 144 days
median Progression Free Survival (PFS) time ([2]; 150 mg twice daily): 48 days
Overall Survival (OS) time ([2]; 250 mg twice daily): 208 days
median Progression Free Survival (PFS) time ([2]; 250 mg twice daily): 53 days
median overall survival (OS) ([2]; all patients (ECOG 0-2)): 153 days
median PFS ([2]; baseline ECOG of 0 or 1, 150 mg twice daily): 81 days
median PFS ([2]; baseline ECOG of 0 or 1, 250 mg twice daily): 85 days
patients with stable disease ([2]; baseline ECOG of 2): one of the 17 patients
reduction (partial response) in tumor size ([2]; one patient, 250 mg twice daily, sustained through 9 months): 74%
median OS ([2]; patients with ECOG score of 0-1): 264 days
patients achieving clinical benefit ([2]; subgroup with ECOG 0 or 1): ~60%
PFS rate at 6 months (24 weeks) [3, 15]: 28.3%
PFS rate at 9 months (36 weeks) [3, 15]: 16.5%
median time to progression ([3]; based on radiological data, disregarding tumour marker progression): 143 days
PFS rate at 3 months (12 weeks) ([3]; versus placebo arm): not different between arms
time between tumour marker progression and radiological progression ([3]; versus placebo arm): longer
period the patient with the CR has been maintained on monotherapy ([4]; compound A1 monotherapy after combination stage): over 63 weeks
Maximum Tolerated Dose (MTD) of compound A1 ([4]; in combination with standard dose of compound B1 (500 mg/m^2)): 200 mg bid

COC(=O)c1ccc2c(c1)NC(=O)/C2=C(\Nc1ccc(N(C)C(=O)CN2CCN(C)CC2)cc1)c1ccccc1 [compound A, 3-Z-[1-(4-(N-((4-methyl-piperazin-1-yl)-methylcarbonyl)-N-methyl-amino)-anilino)-1-phenyl-methylene]-6-methoxycarbonyl-2-indolinone]
T/C [5]: T/C 16% @ 100 mg/kg/d
Efficacy [6]: tumor volume reduction
T/C [7]: T/C 32% @ 50 mg/kg/d
T/C [8]: T/C 11% @ 100 mg/kg/d
T/C [9]: T/C 54% @ 25 mg/kg/d
T/C [10]: T/C 24% @ 50 mg/kg/d
T/C [11]: T/C 19% @ 50 mg/kg/d
T/C [12]: T/C 34% @ 100 mg/kg/d
T/C [13]: T/C 13% @ 100 mg/kg/d
Efficacy (cell wraps: interference with tumor formation) [14]: interference with

Nc1nc2[nH]cc(CCc3ccc(C(=O)N[C@@H](CCC(=O)[O-])C(=O)[O-])cc3)c2c(=O)[nH]1.[Na+].[Na+] [compound B1, N-[4-[2-(2-amino-4,7-dihydro-4-oxo-1H-pyrrolo[2,3-d]pyrimidin-5-yl)ethyl]benzoyl]-L-Glutamic acid, disodium salt, heptahydrate, reference compound]
T/C value [1]: 46%

From US20180243308A1, “PHARMACEUTICAL COMBINATION” (Boehringer Ingelheim International GmbH, priority 2008, published 2018)
